The test system of series [1] is acetaminophen-induced acute liver injury. As to the kind of experiment: Assessment of acute hepatotoxicity: serum biomarkers of liver injury (ALAT, ASAT), spectrophotometric assay. The following applies: for ALAT / ASAT: i.p., 24h after treatment, individual mice. On the procedure:
192 male mice CD-1 (Janvier, France) (12 mice per group) with an age of 7-10 weeks were used. They received the products intraperitoneally (i.p.).
Determination of serum biomarkers: Liver injury was evaluated by measuring the serum levels of alanine aminotransferase (ALAT), and aspartate aminotransferase (ASAT) using a spectrophotometric assay method.
(§1) Protocol: 24h after treatments, animals were euthanized. Plasma and liver were sampled.
Statistical analysis: Results were expressed as means ± standard error of mean (S.E.M.).

The test system is the same in series [2]. Kind of series: Assessment of acute hepatotoxicity: histopathological assessment of liver lesions (H&E, necrosis grade). The format is in vivo, mice CD-1. As for the experimental part:
They received the products intraperitoneally (i.p.).
Histopathological assessment of liver lesions: The histopathological lesions in the liver were evaluated as follows: The collected tissues were processed with standard procedures and embedded in paraffin. The embedded tissues were sectioned into 4 µm thick sections using a microtome. These tissue sections were stained with hematoxylin and eosin (H&E) according to standard techniques and examined by a light microscope.
The severity of necrotic lesions in liver parenchyma was determined. Grade 0: No pathological change Grade 1: Presence of degenerated hepatocytes with only rare foci of necrosis Grade 2: Small area of mild centrilobular necrosis around the central vein Grade 3: Area of mild centrilobular necrosis severer than Grade 2 Grade 4: Centrilobular necrosis severer than Grade 3
as §1

The conditions of series [3]: cited from earlier work.
The next series concerns rats. Kind of series: Toxicology of acetaminophen and/or nefopam: ALAT and ASAT by UV test according to IFCC recommendations. The following applies: for ALAT / ASAT: after 4 weeks, mean, groups 2, 3, 5: P 505 for 4 days then 645 for 24 days and/or N 30 for 4 days then 38.6 for 24 days (mg/kg/day); for transaminase levels: rats, substance alone, after 4 weeks of treatment, statement in text. On the procedure: Liver function in rats is measured and the progression of liver damage is monitored to screen for liver disease in invasive and non-invasive manner. Alanine aminotransferase (ALAT) and aspartate aminotransferase (ASAT), two markers of hepatotoxicity was assayed using UV test according to IFCC recommendations.
Control animals (group 1) received the vehicle only (1% Tween 80 in 0.5% Methylcellulose in water).

The conditions of series [4]: median value; cited from earlier work.
The mark [5] stands for this setting: Vehicle + 200 mg/kg NAC, 200 mg/kg.
[6] abbreviates: Vehicle + 1.1 mg/kg nefopam, 1.1 mg/kg.
The mark [7] stands for this setting: Vehicle + 2.2 mg/kg nefopam, 2.2 mg/kg.
Setting [8] is: Vehicle + 4.4 mg/kg nefopam, 4.4 mg/kg.
The mark [9] stands for this setting: nefopam at doses of 17.65 and 35.29 mg/kg (i.p.) co-administered with acetaminophen, mice.

Several values for one entry are separate records, joined by “and”; a condition that tells them apart may be missing. Equal entries are not always repeated.

For `CC(=O)N[C@@H](CS)C(=O)O` [NAC, N-acetylcysteine], in series [1] (setting [5]), the ALAT is 41 U/L (2×) and 26 U/L and 27 U/L and 30 U/L and 58 U/L and 31 U/L and 28 U/L and 14 U/L and 29 U/L and 71 U/L and 51 U/L; the ASAT was 292 U/L and 101 U/L and 114 U/L and 184 U/L and 320 U/L and 160 U/L and 360 U/L and 107 U/L and 283 U/L and 723 U/L and 170 U/L and 183 U/L. For the same molecule, the Score in series [2] (Vehicle + 200 mg/kg NAC, i.p., 24h after treatment, individual mice) stood at 0.
By half-life is commonly meant the time in which the quantity being followed falls by half. As to `CC(=O)Nc1ccc(O)cc1` [Acetaminophen, N-acetyl-p-aminophenol], in series [3] (individuals without liver injury), the half-life is 2 to 3 h. Besides, in series [3] (taken orally), the “bioavailability (drug being absorbed)” value is given as around 80%. Also, in series [3] (therapeutic doses), the “metabolized through the activity of CYPs (primarily CYP2E) to N-acetyl-p-benzoquinoneimine (NAPQI)” value was at most 5%. Further, the ALAT in the series on rats (female rats) amounted to 49 U/L; with rats (male rats) it was 59 U/L. The ASAT worked out at 101 U/L in the series on rats (female rats) and 110 U/L in the series on rats (male rats). Moreover, the transaminase levels result in the series on rats was “increases transaminase levels”; in the series with rats (listed as acetaminophen), “increase in transaminase levels”. Besides, in series [4], the “median effective analgesic dose” value is 500 mg.
For the molecule `CN1CCOC(c2ccccc2)c2ccccc2C1` (stereo not shown) [nefopam, 5-methyl-1-phenyl-1,3,4,6-tetrahydro-2,5-benzoxazo-cine], the ALAT in series [1] (setting [6]) is 17 U/L and 29 U/L and 55 U/L (2×) and 51 U/L and 23 U/L and 31 U/L and 45 U/L and 19 U/L and 49 U/L and 27 U/L and 28 U/L; in series [1] (setting [7]), 30 U/L (2×) and 19 U/L (2×) and 52 U/L and 152 U/L and 24 U/L and 27 U/L and 35 U/L and 60 U/L and 57 U/L and 25 U/L; in series [1] (setting [8]), 55 U/L and 25 U/L and 22 U/L and 43 U/L (2×) and 51 U/L and 26 U/L and 28 U/L and 42 U/L and 24 U/L and 71 U/L and 23 U/L; with rats (female rats) it was 31 U/L; in the series with rats (male rats), 35 U/L. Besides, the ASAT in series [1] (setting [6]) was 98 U/L and 266 U/L and 180 U/L and 152 U/L and 193 U/L and 181 U/L and 136 U/L and 426 U/L and 110 U/L and 97 U/L and 210 U/L; in series [1] (setting [7]) it was 111 U/L and 395 U/L and 59 U/L and 325 U/L and 119 U/L and 118 U/L and 221 U/L and 129 U/L and 269 U/L and 785 U/L and 148 U/L; in series [1] (setting [8]), 541 U/L and 128 U/L and 111 U/L and 93 U/L and 151 U/L and 79 U/L and 89 U/L and 531 U/L and 71 U/L and 466 U/L; in the series with rats (female rats), 96 U/L; in the series with rats (male rats), 83 U/L. Besides, the acetaminophen-induced hepatotoxicity entry in series [1] (co-administered with acetaminophen 300 mg/kg i.p., mice) was “able to abolish acetaminophen-induced hepatotoxicity”. For the same molecule, the “ASAT and ALAT plasma concentration” value in series [1] (mouse, in vivo) is listed as “did not influence”. In series [1] (setting [9]), the “ASAT and ALAT elevations” value is “significantly reduced”. Further, the histological score in series [2] (mouse, in vivo) is 0; in series [2] (setting [9]), “significantly reduced”.

Source of the values: patent EP4279069A1, “A PHARMACEUTICAL COMPOSITION FOR USE IN PREVENTING AND/OR REDUCING HEPATOTOXICITY INDUCED BY ACETAMINOPHEN” (priority 2022, dated 2023).
